From publication PMC9598407, “Identification of Staphylococcus aureus Penicillin Binding Protein 4 (PBP4) Inhibitors” (Antibiotics, 2022)
In brackets after ≈: the same amount, converted by molar mass.

Assays:
S. aureus COLnex = test: MIC testing, strain COLnex; assay type: cell-based; settings: Staphylococcus aureus, read-out: Minimum inhibitory concentration
Method: (§1) To further evaluate their potential PBP4 inhibitor activity, prioritized compounds were tested for their ability to reverse PBP4 mediated antibiotic resistance in another S. aureus background using three isogenic strains that became available during our study (generous gift from Dr. S. Chatterjee; University of Maryland). These strains included: (1) COLnex, which is a methicillin susceptible strain, (2) CRB, a methicillin/ceftobiprole-resistant strain of COLnex that overproduces PBP4, and (3) CRB∆pbp4, a methicillin susceptible strain of CRB lacking the pbp4 gene.
(§2) S. aureus strain USA300 is a predominant cause of U.S. community-associated MRSA infections, whereas strain COL is a commonly studied hospital-associated MRSA strain. The S. aureus USA300 pbp4-null strain (USA300Δpbp4) and PBP4 complementation strain (USA300∆pbp4 pPBP4) have been previously described. Strain COLn is a laboratory derived tetracycline susceptible derivative of COL, whereas COLnex is a methicillin susceptible COLn derivative that has been cured of SCCmec thereby removing the mecA, which encodes PBP2a, and has been previously described. Strain CRB is a well-studied MRSA COLnex derivative that contains two amino acid substitutions (E183A and F241R) near the PBP4 active site and a 36-bp duplication 290-bp upstream of the pbp4 open reading frame leading to 20–40-fold overexpression of the gene. All strains were grown in Mueller Hinton (MH) broth at 37 °C, as indicated. Penicillin, streptomycin, ciprofloxacin, mupirocin, meropenem, and mitomycin C were purchased from Fisher Scientific (Waltham, MA, USA), whereas ceftobiprole was obtained from MedChemExpress LLC (Monmouth Junction, NJ, USA). The 30,000-member […]-EXP small molecule chemical library (Blocks 3–5) used in these studies was purchased from ChemBridge Corporation (San Diego, CA, USA).

S. aureus CRB = test: MIC testing, strain CRB (PBP4 overproducer); assay type: cell-based, Staphylococcus aureus; settings: Staphylococcus aureus, read-out: Minimum inhibitory concentration, strain CRB
Method: as §1, §2

[1] = tested on: S. aureus USA300∆pbp4 pPBP4; test: microbe, parasite or virus in culture; assay type: cell-based; settings: Staphylococcus aureus, USA300, read-out: Minimum inhibitory concentration
S. aureus USA300 = test: Minimum inhibitory concentration (MIC) testing, strain USA300; assay type: cell-based, Staphylococcus aureus; settings: Staphylococcus aureus, USA300, read-out: Minimum inhibitory concentration
Method: (§3) The approach used was to initially search for compounds that reverse the antibiotic resistance profile of wild type cells to that of a pbp4 mutant. To define screening conditions three strains were employed, a wild type USA300 MRSA strain, an isogenic pbp4 deletion strain, and a complemented strain harboring a plasmid wildtype pbp4 copy. The antibiotic susceptibility profile of each strain was measured to determine the magnitude with which PBP4 affects resistance to various antibiotics (Table 1). […]. We anticipated that the greater dynamic range of the latter could provide a means to reliably screen for agents that inhibit PBP4 function. […].
as §2

S. aureus USA300∆pbp4 = test: MIC testing, strain USA300∆pbp4; assay type: cell-based, Staphylococcus aureus; settings: Staphylococcus aureus, USA300, read-out: Minimum inhibitory concentration
Method: as §3, §2

S. aureus CRB∆pbp4 = test: MIC testing, strain CRB∆pbp4; assay type: cell-based; settings: Staphylococcus aureus, read-out: Minimum inhibitory concentration
Method: as §1, §2

[2] = biological target: recombinant Bacillus subtilis PBP4 (Bacillus subtilis, UniProt P40750); test: BOCILLIN FL fluorescence polarization displacement assay, PBP4; assay type: binding; settings: for Effect of preincubation on BOCILLIN FL binding to PBP4 (fluorescence polarization): 50 µM, 1 µM PBP4
Method: To more directly evaluate whether 9314848 is likely to affect PBP4 function, the compound’s ability to bind recombinant PBP4 was measured using BOCILLIN FL fluorescence polarization displacement assays. The premise for the assay is that the fluorescence polarization of the fluorescently labeled β-lactam, penicillin V (BOCILLIN FL), will increase upon binding to its cognate target (i.e., PBP4). Further, compounds that bind PBP4 and inhibit its function would impede BOCILLIN FL binding thereby allowing us to assess the protein binding affinity of 9314848 using a simple fluorescence reduction assay.
To determine whether the assay is amenable to measuring the binding properties of a compound that is known to bind PBP4 vs. a compound that is not expected to bind the protein we performed fluorescence polarization assays in which PBP4 was preincubated with either the β-lactam ampicillin, or the aminoglycoside kanamycin.
A dose response study was conducted (Figure 4B) in which PBP4 was preincubated with 0, 3.125, 6.25, 12.5, 25, or 50 µM of ampicillin, kanamycin, or 9314848.
First, fluorescence polarization assays were performed as previously described, but with minor modifications. Briefly, the indicated amount of the putative PBP4 inhibitor or control antibiotic was incubated with 1 µM recombinant B. subtilis PBP4 or S. aureus PBP2a in potassium phosphate buffer (40 mM K2HPO4 and 10 mM KH2PO4) for 1 h in black 96-well microtiter plates (Corning Life Sciences, Corning, NY, USA). Following incubation, 1 µM (final concentration) BOCILLIN FL penicillin was added, and the mixture was incubated for 30 min. BOCILLIN FL fluorescence polarization was measured at (495 nm excitation and 545 nm emission) in a SpectraMax M5 multimode plate reader (Molecular Devices, San Jose, CA, USA). […] The resulting data were plotted as percentage BOCILLIN FL binding inhibition = (T/U) × 100; T = FL polarization of ((PBP4+ BOCILLIN FL) − (PBP4+ BOCILLIN FL + inhibitor compound)), U = FL polarization of ((PBP4 + BOCILLIN FL) − (BOCILLIN FL)). Second, gel electrophoresis and fluorescence detection was used to measure BOCILLIN FL labeling of PBP4 treated with the known PBP4 inhibitor cefoxitin (positive control), kanamycin (negative control) or 9314848 (test compound), as previously described but with minor modifications. Briefly, 1 µM of recombinant PBP4 was mixed with 0, 50, 500, 2000, or 5000 µM 9314848 or control antibiotic in 50 mM phosphate buffer (pH 7.4) and incubated at 37 °C for 30 min. Next 40 μM of BOCILLIN FL was added to the reaction mixture and incubated for an additional 30 min at 37 °C. Reactions were stopped by adding 5× SDS-PAGE gel loading dye, heated at 100 °C for 3 min and separated by electrophoresis in 12% SDS-PAGE (2 h, 120 Volts). BOCILLIN FL labeled PBP4 was imaged at λ = 365 nm using a BioRad Gel Doc EZ Imaging system and the gel was then subsequently stained with Bio-safe Coomassie Brilliant Blue stain (BioRad, Hercules, CA, USA) to measure the amount of protein present in each reaction condition and analyzed using NIH-ImageJ software. The percent BOCILLIN FL binding was calculated by first normalizing the protein present in each reaction condition to that of untreated control and subsequently applying each reaction’s protein normalization factor to each reaction’s fluorescent signal. The percentage BOCILLIN FL binding inhibition was then calculated as the normalized band intensity of antibiotic/compound treated sample as compared to the control sample (PBP4 + BOCILLIN FL in the absence of compound).

recombinant PBP4 = recombinant PBP4 (Bacillus subtilis, UniProt P40750); test: Gel electrophoresis BOCILLIN FL labeling of PBP4; assay type: binding; settings: for Effect of preincubation on PBP4 BOCILLIN FL labeling (gel-based): 50-5000 µM, kanamycin 2000 µM or 5000 µM; for PBP4 BOCILLIN FL binding inhibition (gel-based) at low concentration: concentrations below 50 µM
Method: A second, yet lower resolution, approach was used to verify the impact of 9314848 on PBP4 substrate binding in which the protein was preincubated with compound or control antibiotics then labeled with the BOCILLIN FL and resulting fluorescent labeled protein was visualized following gel electrophoresis.
The ability of putative PBP4 inhibitors to impact the active site of recombinant PBP4 was assessed using two previously established BOCILLIN-FL Penicillin (Penicillin V conjugated to BODIPY fluorescent dye) binding assays. First, fluorescence polarization assays were performed as previously described, but with minor modifications. Briefly, the indicated amount of the putative PBP4 inhibitor or control antibiotic was incubated with 1 µM recombinant B. subtilis PBP4 or S. aureus PBP2a in potassium phosphate buffer (40 mM K2HPO4 and 10 mM KH2PO4) for 1 h in black 96-well microtiter plates (Corning Life Sciences, Corning, NY, USA). Following incubation, 1 µM (final concentration) BOCILLIN FL penicillin was added, and the mixture was incubated for 30 min. BOCILLIN FL fluorescence polarization was measured at (495 nm excitation and 545 nm emission) in a SpectraMax M5 multimode plate reader (Molecular Devices, San Jose, CA, USA). All assays were repeated at least 8 times, averaged, and values falling outside of 2 standard deviations were considered outliers. The resulting data were plotted as percentage BOCILLIN FL binding inhibition = (T/U) × 100; T = FL polarization of ((PBP4+ BOCILLIN FL) − (PBP4+ BOCILLIN FL + inhibitor compound)), U = FL polarization of ((PBP4 + BOCILLIN FL) − (BOCILLIN FL)). Second, gel electrophoresis and fluorescence detection was used to measure BOCILLIN FL labeling of PBP4 treated with the known PBP4 inhibitor cefoxitin (positive control), kanamycin (negative control) or 9314848 (test compound), as previously described but with minor modifications. Briefly, 1 µM of recombinant PBP4 was mixed with 0, 50, 500, 2000, or 5000 µM 9314848 or control antibiotic in 50 mM phosphate buffer (pH 7.4) and incubated at 37 °C for 30 min. Next 40 μM of BOCILLIN FL was added to the reaction mixture and incubated for an additional 30 min at 37 °C. Reactions were stopped by adding 5× SDS-PAGE gel loading dye, heated at 100 °C for 3 min and separated by electrophoresis in 12% SDS-PAGE (2 h, 120 Volts). BOCILLIN FL labeled PBP4 was imaged at λ = 365 nm using a BioRad Gel Doc EZ Imaging system and the gel was then subsequently stained with Bio-safe Coomassie Brilliant Blue stain (BioRad, Hercules, CA, USA) to measure the amount of protein present in each reaction condition and analyzed using NIH-ImageJ software. The percent BOCILLIN FL binding was calculated by first normalizing the protein present in each reaction condition to that of untreated control and subsequently applying each reaction’s protein normalization factor to each reaction’s fluorescent signal. The percentage BOCILLIN FL binding inhibition was then calculated as the normalized band intensity of antibiotic/compound treated sample as compared to the control sample (PBP4 + BOCILLIN FL in the absence of compound).

recombinant PBP4, sequence (P40750 22-624): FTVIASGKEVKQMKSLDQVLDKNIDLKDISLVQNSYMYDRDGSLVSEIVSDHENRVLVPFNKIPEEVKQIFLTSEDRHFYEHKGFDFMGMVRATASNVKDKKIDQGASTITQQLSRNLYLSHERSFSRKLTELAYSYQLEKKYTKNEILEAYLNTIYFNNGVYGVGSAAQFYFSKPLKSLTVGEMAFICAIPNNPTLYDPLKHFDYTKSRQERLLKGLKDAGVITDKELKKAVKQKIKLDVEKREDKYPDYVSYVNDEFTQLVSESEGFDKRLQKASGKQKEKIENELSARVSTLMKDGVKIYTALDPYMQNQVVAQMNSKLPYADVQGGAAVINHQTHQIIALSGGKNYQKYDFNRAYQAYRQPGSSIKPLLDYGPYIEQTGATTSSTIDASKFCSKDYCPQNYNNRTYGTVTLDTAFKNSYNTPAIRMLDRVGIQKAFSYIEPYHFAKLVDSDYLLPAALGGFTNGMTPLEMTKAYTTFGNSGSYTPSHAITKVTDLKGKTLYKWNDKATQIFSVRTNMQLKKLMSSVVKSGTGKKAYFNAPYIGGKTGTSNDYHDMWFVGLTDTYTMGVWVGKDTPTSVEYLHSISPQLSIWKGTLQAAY
recombinant Bacillus subtilis PBP4, sequence (P40750 22-624): as above

NC[C@H]1O[C@H](O[C@H]2[C@H](O)[C@@H](O[C@H]3O[C@H](CO)[C@@H](O)[C@H](N)[C@H]3O)[C@H](N)C[C@@H]2N)[C@H](N)C[C@@H]1O [TOB, tobramycin]
MIC (S. aureus COLnex): 0.06 µg/mL (≈ 0.128 µM) | MIC (S. aureus CRB): 0.06 µg/mL (≈ 0.128 µM) | MIC [1]: 1 µg/mL (≈ 2.14 µM) | MIC (S. aureus USA300): 1 µg/mL (≈ 2.14 µM) | MIC (S. aureus USA300∆pbp4): 1 µg/mL (≈ 2.14 µM) | MIC (S. aureus CRB∆pbp4): 0.06 µg/mL (≈ 0.128 µM)

CC1(C)S[C@@H]2[C@H](NC(=O)[C@H](N)c3ccccc3)C(=O)N2[C@H]1C(=O)O [ampicillin]
Effect of preincubation on BOCILLIN FL binding to PBP4 (fluorescence polarization) [2]: limited BOCILLIN FL binding | Effect of preincubation on PBP4 BOCILLIN FL labeling (gel-based) (recombinant PBP4): reduced the protein’s ability to bind the fluorescent substrate | PBP4 BOCILLIN FL binding inhibition (gel-based) at low concentration (recombinant PBP4): did not reproducibly demonstrate BOCILLIN FL binding inhibition

NC[C@H]1O[C@H](O[C@H]2[C@H](O)[C@@H](O[C@H]3O[C@H](CO)[C@@H](O)[C@H](N)[C@H]3O)[C@H](N)C[C@@H]2N)[C@H](O)[C@@H](O)[C@@H]1O [kanamycin]
PBP4 BOCILLIN FL binding inhibition, dose response ([2]; 0, 3.125, 6.25, 12.5, 25, or 50 µM): no inhibitory effect | Effect of preincubation on BOCILLIN FL binding to PBP4 (fluorescence polarization) [2]: had no impact on BOCILLIN FL binding | Effect of preincubation on PBP4 BOCILLIN FL labeling (gel-based) (recombinant PBP4): did not significantly impact

CO[C@@]1(NC(=O)Cc2cccs2)C(=O)N2C(C(=O)O)=C(COC(N)=O)CS[C@@H]21 [cefoxitin]
Effect of preincubation on PBP4 BOCILLIN FL labeling (gel-based) (recombinant PBP4): reduced the protein’s ability to bind the fluorescent substrate | PBP4 BOCILLIN FL binding inhibition (gel-based) at low concentration (recombinant PBP4): did not reproducibly demonstrate BOCILLIN FL binding inhibition

CN(C)c1ccc(O)c2c1C[C@H]1C[C@H]3[C@H](N(C)C)C(O)=C(C(N)=O)C(=O)[C@@]3(O)C(O)=C1C2=O [MIN, minocycline]
MIC (S. aureus COLnex): 0.5 µg/mL (≈ 1.09 µM) | MIC (S. aureus CRB): 0.5 µg/mL (≈ 1.09 µM) | MIC [1]: 0.5 µg/mL (≈ 1.09 µM) | MIC (S. aureus USA300): 0.5 µg/mL (≈ 1.09 µM) | MIC (S. aureus USA300∆pbp4): 0.5 µg/mL (≈ 1.09 µM) | MIC (S. aureus CRB∆pbp4): 0.5 µg/mL (≈ 1.09 µM)
